Data reported in patent US20260315416A1, “PHENYLLACTIC ACID COMPOSITIONS AND RELATED METHODS OF USE” (priority 2023, published 2026).
Converted amounts (≈) assume the structure as drawn.

Assays:
[1] = pH determination of PLA ILs dissolved in water; type: physicochemical
Protocol: (§1) The equilibrium solubility of D-PLA, L-PLA, and their ILs was determined using a previously reported method.^30 An excess amount of D-PLA, L-PLA, or their ILs was added in an Eppendorf tube along with 1 mL of water. The sample was placed on an orbital shaker and was equilibrated at room temperature for 24 h with a speed of 200 rpm. After 24 h, the samples were centrifuged, the supernatant was filtered using a 0.22 μm syringe filter and further diluted using methanol as necessary. The D-PLA or L-PLA content in the supernatant was analyzed using the HPLC method to calculate the equilibrium solubility. Further, the pH values of D-PLA, L-PLA, and their ILs dissolved in water were determined using a VWR 1100L pH meter.

[2] = Thermogravimetric analysis (TGA), thermal stability; type: physicochemical; conditions: 30-350° C. at 10° C./min, nitrogen
Protocol: TA Instruments Discovery TGA 5500 (TA instruments, New Castle, DE, USA) was used to analyse pure PLA, carnitine, and various PLA ILs. The samples were accurately weighed (2-5 mg) in platinum pans and placed onto the autosampler. The samples were heated from 30° C. to 350° C. at 10° C./min; nitrogen was purged at a rate of 25 mL/min. TRIOS software (TA instruments, New Castle, DE, USA) was used to analyse the data.

[3] = Differential scanning calorimetry (DSC), glass transition temperature; type: physicochemical; conditions: cool/heat 5° C./min, 30 to −80° C.
Protocol: The TA Instruments DSC 2500 RCS40 cooling unit (TA instruments, New Castle, DE, USA), calibrated with indium, was used to record thermograms of pure compounds of D-PLA, L-PLA, carnitine, and their corresponding ILs. The samples were weighed (6-10 mg) and hermetically sealed in Tzero aluminium pans, along with an empty reference Tzero pan. The atmosphere was inert because of nitrogen purge at a rate of 25 mL/min. The samples were heated from 30° C. to the temperature equivalent to a 5% weight loss point with a 5° C./min ramp for each sample to observe thermal transitions. The glass transition temperature (Tg) for each sample was recorded in the cool/heat run at 5° C./min ramp from 30° C. to −80° C., and from −80° C. to 30° C. TRIOS software (TA instruments, New Castle, DE, USA) was used to analyse the data.

[4] = tested on: human cervical epithelial cells (A2EN); experiment: Crystal violet staining for cervical cell morphology; type: cell-based; conditions: 24 h; even at 100 mM
Protocol: (§2) Human endocervical epithelial cell line (A2EN), generated from human endocervical explant tissue^31, was cultured as monolayers in keratinocyte serum-free medium (KFSM) supplemented with recombinant epidermal growth factor (5 ng/ml), bovine pituitary extract (50 μg/ml; Gibco), CaCl2 ([…]; Sigma-Aldrich), and primocin (100 μg/ml; InvivoGen, San Diego, CA), herein referred to as A2 medium, at 37° C. under 5% carbon dioxide (CO2) atmosphere.
(§3) Prior to cytotoxicity testing, PLA ILs were diluted to 1 M concentrations with distilled water and filtered using a sterile 0.2 μm syringe filter. Solutions with pH ranging from 4 to 7.5 were prepared by adjusting the pH of A2 media with hydrochloric acid (HCl), following filtration using a sterile 0.2 μm syringe filter.
Cervical cell morphology following PLA IL treatment was visualised using 2.3% crystal violet stain with 0.1% ammonium oxalate and 20% ethanol (Sigma-Aldrich). Cervical cell monolayers were seeded into a tissue-treated 24-well microtiter plate (Falcon) at a density of 1.5×10^5 cells/well and incubated for 24 h at 37° C. under 5% CO2. Two-fold serial dilutions of each PLA IL were prepared and aliquoted into respective wells to obtain final concentrations of 3.125 to 100 mM. Deionised water and 1% Conceptrol (v/v), containing the detergent, nonoxynol-9, were used as negative and positive controls, respectively. […]

[5] = tested on: human cervical epithelial cells (A2EN); experiment: MTT assay for cervical cell proliferation/viability; type: cell-based; conditions: 24 h; even at 50 mM
Protocol: as §2, §3
Cervical cell monolayers were seeded into a tissue-treated 96-well microtiter plate (Corning Costar) at a density of 2.0×10^4 cells/well and incubated for 24 h at 37° C. under 5% CO2. Cells were treated with each PLA IL at concentrations ranging to 3.125 to 100 mM and incubated for 24 h (37° C. under 5% CO2). […] Absorbance was measured at 570 nm (reference 650 nm) and recorded using the Safire II Multi-Mode Microplate reader (Tecan, Mannedorf, Switzerland). Percentage cell viability was calculated as [sample absorbance−media background absorbance]/[control absorbance−media background absorbance]×100. […]

[6] = Equilibrium (saturation) solubility in water; type: physicochemical; conditions: room temperature, HPLC; for saturation/equilibrium solubility in water: 24 h, 1440 min
Protocol: To evaluate the purity of the synthesized D- or L-PLA ILs and for the determination of their water solubility, a reverse phase-HPLC method was developed. The HPLC apparatus consisted of a Shimadzu LC2050C-3D system with a PDA detector. Samples were run through a C18 precolumn and a Gemini C18 reverse-phase column [150×4.5 mm (ID.)] with 5 μm particle size packing (Phenomenex, Torrance, CA). The mobile phase contained acetonitrile and 20 mM phosphoric acid solution in water (25:75). The flow rate of the mobile phase was at 0.8 mL/min, the column oven was set at 45° C., the injection volume was 10 μL, and the detection was carried out at 210 nm. The retention time for PLA was 5.5 min. For the standard curve, D- or L-PLA stock solutions (0.1 mg/mL) were prepared in methanol. The stock solutions were diluted to obtain solutions of various concentrations. The standard curve was obtained by injecting 5-25 μg/mL of PLA. All the experiments were performed in triplicate.
as §1

[7] = Kinetic solubility in water; type: physicochemical; conditions: vs equilibrium solubility
bacteria and fungi = conditions: D-PLA vs L-PLA; cited from earlier work
[8] = tested on: peroxisome proliferator-activated receptor γ (PPAR-γ); conditions: mouse model, early-life antibiotic exposure and high-fat diet; cited from earlier work
[9] = tested on: Salmonella enterica serovar Typhimurium-induced colitis; conditions: mice; cited from earlier work
[10] = tested on: urogenital pathogens (Streptococcus agalactiae, Klebsiella pneumoniae, Candida albicans); conditions: in vitro; gram-positive, gram-negative and fungal urogenital pathogens; cited from earlier work
[11] = tested on: cervicovaginal epithelial barrier; conditions: cited from earlier work

Row | T5% (onset temperature at 5% mass loss) [2] | Structure (SMILES) | saturation/equilibrium solubility in water [6] | solubility thermodynamic at 24 h [6] | kinetic solubility in water [7] | also measured
1 | – | O=C(O)[C@H](O)Cc1ccccc1 [D-PLA] | > 25 mg/mL | 33.1 ± 0.44 mg/mL (≈ 199 mM) | considerably lower | antimicrobial activity of enantiomer (bacteria and fungi): greater antimicrobial activity than L-PLA
2 | 156.07 °C | O=C(O)[C@@H](O)Cc1ccccc1 [L-PLA] | > 25 mg/mL | 25.7 ± 1.02 mg/mL (≈ 154 mM) | considerably lower | –
3 | – | O=C(O)C(O)Cc1ccccc1 (centres unmarked) [PLA, 2-hydroxy-3-phenylpropanoic acid] | – | – | low kinetic solubility in water | PPAR-γ activity [8]: upregulates intestinal peroxisome proliferator-activated receptor γ (PPAR-γ) activity; protection against colitis [9]: protect against Salmonella enterica serovar Typhimurium-induced colitis in mice; antimicrobial properties [10]: exhibits antimicrobial properties
4 | 189.9 °C | C[N+](C)(C)C[C@H](O)CC(=O)[O-] [carnitine] | – | – | – | –
5 | – | CC(O)C(=O)O (centres unmarked) [lactic acid] | – | – | – | anti-inflammatory activity [11]: anti-inflammatory activity; epithelial barrier integrity ([11]; physiological concentrations, tight junction protein expression): enhance cervicovaginal epithelial barrier integrity

Row | Structure (SMILES) | T5% (onset temperature at 5% mass loss) [2] | saturation/equilibrium solubility in water [6] | solubility thermodynamic at 24 h [6] | kinetic solubility in water [7] | also measured
6 | C[N+](C)(C)CCO.O=C([O-])[C@H](O)Cc1ccccc1 [Chol:D-PLA (1:1)] | 94.3 °C | – | – | – | pH [1]: ~ 9; glass transition temperature (Tg) [3]: −63.53 °C; morphological changes [4]: no morphological changes were observed; cell viability [5]: did not significantly reduce cervical epithelial cell viability
